# Results from patent US20260317367A1, “SALTS INCLUDING CRYSTALLINE SALTS OF 25-HYDROXY-CHOLEST-5-EN-3-SULFATE AND METHODS FOR PREPARING SAME” (Durect Corporation, priority 2022, published 2026).
# Structures can show the parent of a compound that is named as a salt.
# Tests used:
# Format in all cases: physicochemical
# [1] = Overall rank order of powder flowability (angle of repose and Hausner ratio); settings: for Powder flowability, overall (in words): angle of repose and compressibility index/Hausner ratio combined; for Angle of Repose Rank Order / Hausner Ratio Rank Order / Overall Rank Order (Total Score): lower is better flow; for Overall Rank Order (Total Score): sum of both ranks
# From the text: Table C5 was generated by adding the relative rank order of the 25HC3S salts for angle of repose and Hausner ratio results, and creating an Over All Rank Order of the salts powder flowability. The salts with the lower overall rank order score had better powder flowability.
# [2] = Final pH of the solubility sample solutions in aqueous media; settings: for pH of the solubility sample, 0.9% Sodium Chloride: 0.9% sodium chloride (blank 5.8); for pH of the solubility sample, 5% Dextrose: 5% dextrose (blank 4.7); for pH of the solubility sample, FaSSGF: FaSSGF (blank 1.5, 1.6); for pH of the solubility sample, FaSSIF: FaSSIF (blank 6.5, 6.5); for pH of the solubility sample, FeSSIF: FeSSIF (blank 4.9, 5.0); for pH of the solubility sample, Water: water (blank 6.3)
# Procedure, shortened: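 Undiluted HPLC assay of centrifuged (12000 rpm, 12–15 min) supernatants from aqueous 25HC3S salt suspensions. These suspensions were kept with excess solid and shaken one day at room temperature, 210 motions/min.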
# [3] = Hausner ratio and compressibility index of 25HC3S salts; settings: for Compressibility Index: Table C3 heads this index in %
# Procedure, shortened: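 Powder poured into a 5 mL graduated cylinder to about 5.0 mL (Vo), tapped 200 then 100 more times on a hard surface; final volume Vf recorded after 300 taps. Compressibility index and Hausner ratio calculated from Vo and Vf; flow character classed per USP <1174>.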
# [4] = Solid-state chemical stability of 25HC3S salts at 2-8° C., 60° C. and 80° C. (HPLC assay and degradation products); settings: for % Impurities, Total / % Impurities, 25-HC: ND = Not Detected; for % Recovery: vs 2-8° C.; for Overall physical and chemical stability (in words): 60° C.; for % Impurities, 25-HC: 25-Hydroxy-Cholesterol
# Procedure, shortened: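 Crystalline 25HC3S salts (~25 mg powder per vial) stored at 2-8° C. or 80° C., pulled at 3 and 6 weeks; some 3-week 2-8° C. vials moved to 60° C. for 1 week. Dissolved in 100% methanol (sonication/vortexing, centrifugation or dilution), then HPLC against 25HC3S sodium standards (0.75-1.25 mg/mL) for assay and degradants.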
# [5] = Solubility of 25HC3S salts after one day at room temperature (HPLC, as free acid); settings: for Solubility in FeSSIF: Fed State Simulated Intestinal Fluid, pH 4.9 to 5.0, room temperature
# Procedure, shortened: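 HPLC quantified the clear supernatant after centrifugation, with organic-solvent samples diluted in water:MeOH 95:5 and aqueous ones undiluted; results are mg/mL as free acid (LOD 0.0007 mg/mL). Each salt was first equilibrated as a suspension with excess solid for one day on a room-temperature shaker.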
# [6] = Appearance (color, clumping, flowability) of stored 25HC3S salts
# [7] = 2-8° C., 3 wk, listed as 25HC3S benzathine
# [8] = 80° C., 3 wk, listed as 25HC3S benzathine
# [9] = 80° C., 5 wk, 50400 min, listed as 25HC3S benzathine
# [10] = room temperature, one day, listed as crystalline 25HC3S benzathine
# [11] = room temperature, one day, listed as benzathine salt of 25HC3S
# [12] = one day, as free acid, 1440 min
# [13] = listed as 25HC3S diethanolamine
# [14] = 2-8° C., 3 wk, listed as 25HC3S diethanolamine
# [15] = 2-8° C., 5 wk, listed as 25HC3S diethanolamine
# [16] = 80° C., 3 wk, listed as 25HC3S diethanolamine
# [17] = 80° C., 5 wk, listed as 25HC3S diethanolamine
# [18] = 80° C., 5 wk, 50400 min, listed as 25HC3S diethanolamine
# [19] = room temperature, one day, listed as crystalline 25HC3S diethanolamine
structure (smiles),measurement,setting,value
CC(CCCC(C)(C)O)C1CCC2C3CC=C4CC(OS(=O)(=O)O)CCC4(C)C3CCC12C (centres unmarked) [Salt #9],"Powder flowability, overall (in words)",[1]; listed as benzathine,next group
same,Angle of Repose Rank Order,[1]; listed as 25HC3S benzathine,12
same,Hausner Ratio Rank Order,[1]; listed as 25HC3S benzathine,7
same,Overall Rank Order (Total Score),[1]; listed as 25HC3S benzathine,19
same,"pH of the solubility sample, 0.9% Sodium Chloride",[2]; listed as 25HC3S benzathine,8.2
same,"pH of the solubility sample, 5% Dextrose",[2]; listed as 25HC3S benzathine,7.1
same,"pH of the solubility sample, FaSSGF",[2],1.6
same,"pH of the solubility sample, FaSSIF",[2]; listed as 25HC3S benzathine,6.5
same,"pH of the solubility sample, FeSSIF",[2],5.0
same,"pH of the solubility sample, Water",[2]; listed as 25HC3S benzathine,8.6
same,Compressibility Index,[3]; listed as 25HC3S benzathine,29
same,Hausner Ratio,[3]; listed as 25HC3S benzathine,1.40
same,Assay,"[4]; 2-8° C., 3 wk, 30240 min, listed as 25HC3S benzathine",87.6 % w/w
same,"% Impurities, Total",[4]; [7],64.0%
same,Assay,"[4]; 2-8° C., 5 wk, 50400 min, listed as 25HC3S benzathine",77.1 % w/w
same,"% Impurities, Total","[4]; 2-8° C., 5 wk, listed as 25HC3S benzathine",64.2%
same,degradation by area normalization,"[4]; 3 and 5 weeks, 2-8° C. and 80° C.",normalization were all approximately 64%-65% indicating that thermal
same,Change of assay value (in words),"[4]; 3 weeks and 5 weeks, 2-8° C. and 80° C.",dropped at a similar rate
same,assay drop (comments),[4]; 3 weeks at 2-8° C. and 80° C. as well as after 5 weeks,The assay dropped at a similar rate after 3 weeks at 2-8 °C and 80 °C
same,% Recovery,"[4]; 80° C., 3 wk, 30240 min, listed as 25HC3S benzathine, 30240 min",97.4%
same,Assay,"[4]; 80° C., 3 wk, 30240 min, listed as 25HC3S benzathine",85.3 % w/w
same,"% Impurities, Total",[4]; [8],64.3%
same,"% Recovery, 2-8° C./5 wk vs 80° C./5 wk",[4]; [9],91.8%
same,Assay,[4]; [9],70.8 % w/w
same,"% Impurities, Total","[4]; 80° C., 5 wk, listed as 25HC3S benzathine",65.3%
same,degraded,"[4]; solid state, 3 weeks and 5 weeks, 2-8° C. and 80° C., read-out: Degradation by area normalization",64 to 65%
same,Solubility in 5% Dextrose,"[5]; 5% dextrose, room temperature, one day, as free acid, LOD 0.0007 mg/mL",No solubilized drug was detected
same,Solubility in FaSSGF (in words),[5]; [10],low solubility
same,Solubility in FaSSIF (in words),[5]; [11],low solubility
same,Solubility in FaSSGF,"[5]; Fasted State Simulated Gastric Fluid, pH 1.6, room temperature, one day, as free acid, LOD 0.0007 mg/mL",no solubilized drug was detected
same,Solubility in FaSSIF,"[5]; Fasted State Simulated Intestinal Fluid, room temperature, one day, as free acid, 1440 min",4 µg/mL
same,Solubility in FeSSIF (in words),[5]; [11],low solubility
same,Solubility in FeSSIF,[5]; [12],25 µg/mL
same,Solubility in all aqueous and organic solvents (in words),[5]; all the aqueous and organic solvents examined,lowest solubility
same,Solubility in saline / 0.9% sodium chloride (in words),[5]; [10],low solubility
same,solubility at 24 h,"[5]; water, room temperature, one day, as 25HC3S free acid, read-out: Solubility in water",6 µg/mL
same,Appearance,[6]; [7],"White, free flowing powder with some"
same,Appearance,"[6]; 2-8° C., 5 wk","White, free flowing powder with clumping"
same,Appearance,[6]; [8],"White, free flowing powder with clumping"
same,Appearance,"[6]; 80° C., 5 wk","White, free flowing powder with clumping"
CC(CCCC(C)(C)O)C1CCC2C3CC=C4CC(OS(=O)(=O)O)CCC4(C)C3CCC12C (centres unmarked) [Salt #10],"Powder flowability, overall (in words)",[1]; listed as diethanolamine,poorer flowability
same,Angle of Repose Rank Order,[1]; [13],14
same,Hausner Ratio Rank Order,[1]; [13],9
same,Overall Rank Order (Total Score),[1]; [13],23
same,"pH of the solubility sample, 0.9% Sodium Chloride",[2]; [13],7.9
same,"pH of the solubility sample, 5% Dextrose",[2]; [13],7.2
same,"pH of the solubility sample, FaSSGF",[2],1.6
same,"pH of the solubility sample, FaSSIF",[2]; [13],6.5
same,"pH of the solubility sample, FeSSIF",[2]; [13],4.9
same,"pH of the solubility sample, Water",[2]; [13],8.2
same,Compressibility Index,[3]; [13],34
same,Hausner Ratio,[3]; [13],1.52
same,Assay,"[4]; 2-8° C., 3 wk, 30240 min, listed as 25HC3S diethanolamine",100.2 % w/w
same,"% Impurities, Total",[4]; [14],1.8%
same,Assay,"[4]; 2-8° C., 5 wk, 50400 min, listed as 25HC3S diethanolamine",107.0 % w/w
same,"% Impurities, Total",[4]; [15],1.9%
same,Overall physical and chemical stability (in words),"[4]; 2-8° C., 80° C.",physically and chemically stable
same,Overall physical and chemical stability (in words),"[4]; 2-8° C., 80° C., listed as diethanolamine",relatively stable
same,"% Impurities, 25-HC",[4]; [14],0.4%
same,"% Impurities, 25-HC",[4]; [15],0.4%
same,"% Impurities, 25-HC",[4]; [16],0.9%
same,"% Impurities, 25-HC",[4]; [17],1.2%
same,Stressed stability at 80° C. (in words),[4]; 80° C.,"good, stressed stability"
same,% Recovery,"[4]; 80° C., 3 wk, 30240 min, listed as 25HC3S diethanolamine, 30240 min",99.4%
same,Assay,"[4]; 80° C., 3 wk, 30240 min, listed as 25HC3S diethanolamine",99.6 % w/w
same,"% Impurities, Total",[4]; [16],2.8%
same,Physical and chemical solid-state stability (comments),"[4]; 80° C., 5 weeks",Stable after 5 weeks at 80 °C physically and chemically.
same,"% Recovery, 2-8° C./5 wk vs 80° C./5 wk",[4]; [18],97.7%
same,Assay,[4]; [18],104.5 % w/w
same,"% Impurities, Total",[4]; [17],3.5%
same,Stability after 5 weeks at 80° C. (in words),"[4]; solid state, 80° C., 5 weeks",stable
same,Solubility in FaSSGF (in words),"[5]; room temperature, one day",high solubility
same,Solubility in FaSSIF (in words),"[5]; room temperature, one day",high solubility
same,Solubility in FaSSIF (in words),[5]; [19],relatively high solubility
same,Solubility in FeSSIF (in words),"[5]; room temperature, one day",high solubility
same,Solubility in FeSSIF (in words),[5]; [19],relatively high solubility
same,Solubility in FeSSIF,[5]; [12],858 µg/mL
same,Solubility in methanol (in words),"[5]; MeOH, room temperature, one day",did not reach saturation
same,Solubility in saline / 0.9% sodium chloride (in words),[5]; [19],low solubility
same,Appearance,[6]; [14],"White, free flowing powder with clumping"
same,Appearance,"[6]; 2-8° C., 5 wk","White, free flowing powder with clumping"
same,Appearance,[6]; [16],"White, free flowing powder with clumping"
same,Appearance,"[6]; 80° C., 5 wk","White, free flowing powder with clumping"
